Test results as given in US20250154173A1 (Merck Sharp & Dohme LLC, priority 2023, published 2025).

target: T1, GST-RIPK1 (recombinant GST-RIPK1 kinase domain (residues 1-327)) (Homo sapiens, UniProt Q13546); assay: RIPK1-ADP-Glo Enzymatic Assay; type: biochemical; conditions: ten-point titration, top compound concentration of 100000 nM; 25 nM GST-RIPK1, 300 μM ATP, 3 μM dephosphorylated-MBP; 30 min pre-incubation, 150 min reaction
T1 construct: recombinant GST-RIPK1 kinase domain (residues 1-327) enzyme produced from baculovirus-transfected Sf21 cells; host or cells: baculovirus-transfected Sf21 insect cells
T1 sequence (Q13546 1-327): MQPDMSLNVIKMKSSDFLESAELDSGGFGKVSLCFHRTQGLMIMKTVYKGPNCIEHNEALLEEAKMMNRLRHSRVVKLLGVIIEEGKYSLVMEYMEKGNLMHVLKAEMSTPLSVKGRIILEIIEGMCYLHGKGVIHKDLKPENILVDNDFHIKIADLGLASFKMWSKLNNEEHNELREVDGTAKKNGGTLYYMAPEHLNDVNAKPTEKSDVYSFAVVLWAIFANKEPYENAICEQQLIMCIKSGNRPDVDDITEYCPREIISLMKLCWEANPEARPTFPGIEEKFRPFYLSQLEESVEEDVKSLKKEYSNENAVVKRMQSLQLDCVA
Method in brief: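 ADP-Glo luminescence quantifies ADP formed over 150 minutes by 25 nM Sf21-produced GST-RIPK1 (1-327) using 300 μM ATP and 3 μM dephosphorylated MBP, following 30-minute compound preincubation at 1% DMSO. Ten-point 1:3 series from 100000 nM gave EC50 via four-parameter sigmoidal regression.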

Compound | EC50 [nM]
N#Cc1cncc(O[C@H]2C[C@@]3(C2)O[C@@H]2CC[C@@H](c4ccc(F)cc4)N2C3=O)c1 [Example 9.49, 5-{[(1r,3R,5′S,7a′R)-5′-(4-fluorophenyl)-3′-oxotetrahydro-3′H-spiro[cyclobutane-1,2′-pyrrolo[2,1-b][1,3]oxazol]-3-yl]oxy}pyridine-3-carbonitrile] | 15
N#Cc1cc(O[C@H]2C[C@@]3(C2)O[C@H]2CC[C@H](c4cnccn4)N2C3=O)ncn1 [Example 9.50, 6-(((5′R,7a′S)-3′-oxo-5′-(pyrazin-2-yl)tetrahydro-3′H-spiro[cyclobutane-1,2′-pyrrolo[2,1-b]oxazol]-3-yl)oxy)pyrimidine-4-carbonitrile] | 330
Cc1nnc(-c2cc(O[C@H]3C[C@@]4(C3)O[C@@H]3CC[C@@H](c5cc(F)cc(F)c5)N3C4=O)ncn2)o1 [Example 9.53, (5′S,7a′R)-5′-(3,5-difluorophenyl)-3-((6-(5-methyl-1,3,4-oxadiazol-2-yl)pyrimidin-4-yl)oxy)tetrahydro-3′H-spiro[cyclobutane-1,2′-pyrrolo[2,1-b]oxazol]-3′-one] | 50
O=C1N2[C@@H](CC[C@H]2c2cc(F)cc(F)c2)O[C@]12C[C@H](Oc1cc(-c3cnn(C(F)F)c3)ncn1)C2 [Example 9.54, (5′S,7a′R)-3-((6-(1-(difluoromethyl)-1H-pyrazol-4-yl)pyrimidin-4-yl)oxy)-5′-(3,5-difluorophenyl)tetrahydro-3′H-spiro[cyclobutane-1,2′-pyrrolo[2,1-b]oxazol]-3′-one] | 24
Cn1nccc1-c1cc(O[C@H]2C[C@@]3(C2)O[C@@H]2CC[C@@H](c4cc(F)cc(F)c4)N2C3=O)ncn1 [Example 9.55, (5′S,7a′R)-5′-(3,5-difluorophenyl)-3-((6-(1-methyl-1H-pyrazol-5-yl)pyrimidin-4-yl)oxy)tetrahydro-3′H-spiro[cyclobutane-1,2′-pyrrolo[2,1-b]oxazol]-3′-one] | 13
N#Cc1ccnc(O[C@H]2C[C@@]3(C2)O[C@@H]2CC[C@@H](c4cc(F)cc(F)c4)N2C3=O)n1 [Example 9.57, 2-(((1r,3R,5′S,7a′R)-5′-(3,5-difluorophenyl)-3′-oxotetrahydro-3′H-spiro[cyclobutane-1,2′-pyrrolo[2,1-b]oxazol]-3-yl)oxy)pyrimidine-4-carbonitrile] | 69
O=C1N2[C@@H](CC[C@H]2c2ccc(F)cc2)OC12CC(Oc1nccn3ncnc13)C2 (stereo partly drawn) [Example 9.59, (5′S,7a′R)-5′-(4-fluorophenyl)-3-[([1,2,4]triazolo[1,5-a]pyrazin-8-yl)oxy]tetrahydro-3′H-spiro[cyclobutane-1,2′-pyrrolo[2,1-b][1,3]oxazol]-3′-one] | 71.9
O=C1N2[C@@H](CC[C@H]2c2ccc(F)cc2)OC12CC(OCc1cccnc1)C2 (stereo partly drawn) [Example 9.60, (5′S,7a′R)-5′-(4-fluorophenyl)-3-[(pyridin-3-yl)methoxy]tetrahydro-3′H-spiro[cyclobutane-1,2′-pyrrolo[2,1-b][1,3]oxazol]-3′-one] | 188
Cn1ccc([C@@H]2CC[C@H]3O[C@]4(C[C@H](Oc5ncnn6cccc56)C4)C(=O)N32)n1 [Example 9.63, (1r,3R,5′S,7a′R)-5′-(1-methyl-1H-pyrazol-3-yl)-3-[(pyrrolo[2,1-f][1,2,4]triazin-4-yl)oxy]tetrahydro-3′H-spiro[cyclobutane-1,2′-pyrrolo[2,1-b][1,3]oxazol]-3′-one] | 33.3
O=C1N2[C@@H](CC[C@H]2c2cnccn2)OC12CC(Oc1cnccn1)C2 (stereo partly drawn) [Example 9.66, (5′S,7a′R)-5′-(pyrazin-2-yl)-3-[(pyrazin-2-yl)oxy]tetrahydro-3′H-spiro[cyclobutane-1,2′-pyrrolo[2,1-b][1,3]oxazol]-3′-one] | 21
N#Cc1ccnc(O[C@H]2C[C@@]3(C2)O[C@@H]2CC[C@@H](c4cc(F)cc(F)c4)N2C3=O)c1 [Example 10.1, 2-(((1r,3R,5′S,7a′R)-5′-(3,5-difluorophenyl)-3′-oxotetrahydro-3′H-spiro[cyclobutane-1,2′-pyrrolo[2,1-b]oxazol]-3-yl)oxy)isonicotinonitrile] | 9
O=C1N2[C@@H](CC[C@H]2c2cc(F)cc(F)c2)O[C@]12C[C@H](Oc1cc(-c3nn[nH]n3)ccn1)C2 [Example 10.3, (1r,3R,5′S,7a′R)-3-((4-(2H-tetrazol-5-yl)pyridin-2-yl)oxy)-5′-(3,5-difluorophenyl)tetrahydro-3′H-spiro[cyclobutane-1,2′-pyrrolo[2,1-b]oxazol]-3′-one] | 11
NC(=O)c1ccnc(O[C@H]2C[C@@]3(C2)O[C@@H]2CC[C@@H](c4ccc(F)cc4)N2C3=O)c1 [Example 10.6, 2-(((1r,3R,5′S,7a′R)-5′-(4-fluorophenyl)-3′-oxotetrahydro-3′H-spiro[cyclobutane-1,2′-pyrrolo[2,1-b]oxazol]-3-yl)oxy)isonicotinamide] | 52

Continued by falling EC50, values first:

EC50 [nM] | Compound
467 | O=C1N2[C@@H](CC[C@H]2c2ccc(F)cc2)OC12CC(Oc1nccn3ccnc13)C2 (stereo partly drawn) [Example 9.58, (5′S,7a′R)-5′-(4-fluorophenyl)-3-[(imidazo[1,2-a]pyrazin-8-yl)oxy]tetrahydro-3′H-spiro[cyclobutane-1,2′-pyrrolo[2,1-b][1,3]oxazol]-3′-one]
124 | Cn1ccc([C@@H]2CC[C@H]3OC4(CC(Oc5cnccn5)C4)C(=O)N32)n1 (stereo partly drawn) [Example 9.64, (5′S,7a′R)-5′-(1-methyl-1H-pyrazol-3-yl)-3-[(pyrazin-2-yl)oxy]tetrahydro-3′H-spiro[cyclobutane-1,2′-pyrrolo[2,1-b][1,3]oxazol]-3′-one]
104 | O=C1N2[C@@H](CC[C@H]2c2ccc(F)cc2)OC12CC(OCc1ccncc1)C2 (stereo partly drawn) [Example 9.61, (5′S,7a′R)-5′-(4-fluorophenyl)-3-[(pyridin-4-yl)methoxy]tetrahydro-3′H-spiro[cyclobutane-1,2′-pyrrolo[2,1-b][1,3]oxazol]-3′-one]
56 | O=C1N2[C@H](CC[C@H]2c2cnccn2)O[C@]12C[C@@H](Oc1ncnn3cccc13)C2 [Example 9.51, (1s,3R,5′R,7a′S)-5′-(pyrazin-2-yl)-3-(pyrrolo[2,1-f][1,2,4]triazin-4-yloxy)tetrahydro-3′H-spiro[cyclobutane-1,2′-pyrrolo[2,1-b]oxazol]-3′-one]
24 | N#Cc1cc(O[C@H]2C[C@@]3(C2)O[C@@H]2CC[C@@H](c4ccc(F)cn4)N2C3=O)ncn1 [Example 9.47, 6-{[(5′S,7a′R)-5′-(5-fluoropyridin-2-yl)-3′-oxotetrahydro-3′H-spiro[cyclobutane-1,2′-pyrrolo[2,1-b][1,3]oxazol]-3-yl]oxy}pyrimidine-4-carbonitrile]
20 | O=C1N2[C@@H](CC[C@H]2c2ccc(F)cc2)O[C@]12C[C@H](Oc1cncc(F)c1)C2 [Example 9.48, (1r,3R,5′S,7a′R)-5′-(4-fluorophenyl)-3-[(5-fluoropyridin-3-yl)oxy]tetrahydro-3′H-spiro[cyclobutane-1,2′-pyrrolo[2,1-b][1,3]oxazol]-3′-one]
20 | NC(=O)c1ccnc(O[C@H]2C[C@@]3(C2)O[C@@H]2CC[C@@H](c4ccccc4)N2C3=O)c1 [Example 10.5, 2-(((1r,3R,5′S,7a′R)-3′-oxo-5′-phenyltetrahydro-3′H-spiro[cyclobutane-1,2′-pyrrolo[2,1-b]oxazol]-3-yl)oxy)isonicotinamide]
18 | O=C1N2[C@@H](CC[C@H]2c2cc(F)cc(F)c2)O[C@]12C[C@H](Oc1cc(-n3cc(C(F)F)cn3)ncn1)C2 [Example 9.56, (5′S,7a′R)-3-((6-(4-(difluoromethyl)-1H-pyrazol-1-yl)pyrimidin-4-yl)oxy)-5′-(3,5-difluorophenyl)tetrahydro-3′H-spiro[cyclobutane-1,2′-pyrrolo[2,1-b]oxazol]-3′-one]
18 | NC(=O)c1ccnc(O[C@H]2C[C@@]3(C2)O[C@@H]2CC[C@@H](c4cc(F)cc(F)c4)N2C3=O)c1 [Example 10.2, 2-(((1r,3R,5′S,7a′R)-5′-(3,5-difluorophenyl)-3′-oxotetrahydro-3′H-spiro[cyclobutane-1,2′-pyrrolo[2,1-b]oxazol]-3-yl)oxy)isonicotinamide]
13 | O=C1N2C(CCC2c2ccc(F)cn2)OC12CC(Oc1ncnn3cccc13)C2 (stereo not shown) [Example 9.65, 5′-(5-fluoropyridin-2-yl)-3-[(pyrrolo[2,1-f][1,2,4]triazin-4-yl)oxy]tetrahydro-3′H-spiro[cyclobutane-1,2′-pyrrolo[2,1-b][1,3]oxazol]-3′-one]
13 | N#Cc1ccnc(O[C@H]2C[C@@]3(C2)O[C@@H]2CC[C@@H](c4ccccc4)N2C3=O)c1 [Example 10.4, 2-(((1r,3R,5′S,7a′R)-3′-oxo-5′-phenyltetrahydro-3′H-spiro[cyclobutane-1,2′-pyrrolo[2,1-b]oxazol]-3-yl)oxy)isonicotinonitrile]
10.2 | O=C1N2[C@@H](CC[C@H]2c2ncccc2F)OC12CC(Oc1ncnn3cccc13)C2 (stereo partly drawn) [Example 9.62, (5′S,7a′R)-5′-(3-fluoropyridin-2-yl)-3-[(pyrrolo[2,1-f][1,2,4]triazin-4-yl)oxy]tetrahydro-3′H-spiro[cyclobutane-1,2′-pyrrolo[2,1-b][1,3]oxazol]-3′-one]
